What all share (format): in vivo
Experiment [1] has as its system Meloidogyne incognita. Kind of experiment: Meloidogyne incognita test. Conditions: 336 h, lettuce, after 14 days, read-out: nematicidal efficacy (formation of galls). The procedure, abridged:
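Active compound in acetone, diluted with water, added to sand-filled vessels with M. incognita eggs/larvae and lettuce seeds. After 14 days, efficacy scored by root gall formation: 100% = no galls, 0% = galls equal to untreated control.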

Experiment [2] deals with Myzus persicae. In words: Myzus persicae oral test. Conditions: 120 h, oral uptake, after 5 days, read-out: efficacy. The method in brief: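 Compound dissolved in acetone, diluted in water, then mixed 50:150 μl with IPL41 insect medium (33%+15% sugar). Mixed-population green peach aphids feed through a parafilm seal on the solution; mortality scored as % efficacy after 5 days (100% = all killed).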

For experiment [3], the system named is Phaedon cochleariae. Kind of experiment: Phaedon cochleariae spray test. Conditions: foliar, 168 h, Chinese cabbage leaf discs, larvae, after 7 days, read-out: efficacy. As for the experimental part:
Phaedon cochleariae—Spray Test
To produce a suitable preparation of active compound, 1 part by weight of active compound is dissolved using the specified parts by weight of solvent and made up with water containing an emulsifier concentration of 1000 ppm until the desired concentration is attained. To produce further test concentrations, the formulation is diluted with emulsifier-containing water.
After 7 days, the efficacy in % is determined. 100% means that all the beetle larvae have been killed; 0% means that no beetle larvae have been killed.

Experiment [4] deals with Myzus persicae. Kind of experiment: Myzus persicae spray test (Chinese cabbage leaf discs). Conditions: foliar, 120 h, 500 g/ha, after 5-6 days, read-out: efficacy. The method in brief: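 Chinese cabbage leaf discs infested with all stages of green peach aphid were sprayed with compound formulated in acetone/DMF and emulsifier-containing water. Efficacy in % was scored after 5-6 days, with 100% meaning all aphids killed and 0% none killed.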

The values below come from patent US20200288710A1, “SUBSTITUTED SULPHONAMIDES FOR CONTROLLING ANIMAL PESTS” (BAYER CROPSCIENCE AKTIENGESELLSCHAFT, priority 2016, published 2020).

Regarding `Cc1cccc(C(F)(F)F)c1S(=O)(=O)NC(=O)c1cn(C)c(-c2cccc(Cl)c2Cl)n1` [Example 561], the pest or weed control at 20 ppm in experiment [1] and in experiment [2] was 100% each time. Besides, the pest or weed control at 500 g/ha in experiment [3] stood at 100%; in experiment [4] it was 90%.

For the compound `Cc1cccc(Cl)c1S(=O)(=O)NC(=O)c1cn(C)c(-c2ncccc2F)n1` [Example 599], the pest or weed control at 20 ppm in experiment [1] and in experiment [2] was 100% in each case. Besides, the pest or weed control at 500 g/ha in experiment [3] and in experiment [4] was 100% each time.

Consider `Cn1c(-c2c(F)cccc2F)nc(C(=O)NS(=O)(=O)c2ccccc2Cl)c1Cl` [Example 550], for which, in experiment [1], the pest or weed control at 20 ppm worked out at 90%. The figures for the pest or weed control at 500 g/ha in experiment [3] and in experiment [4] were 100% and 90%, respectively.

On to `COc1cc(S(=O)(=O)NC(=O)c2cn(C)c(-c3ccccc3Cl)n2)c(C)cc1Br` [Example 286], for which the pest or weed control at 20 ppm in experiment [1] and in experiment [2] was 100% in each case. For the same compound, the pest or weed control at 500 g/ha in experiment [3] was 100%.

For `Cn1cc(C(=O)NS(=O)(=O)c2ccccc2Cl)nc1-c1c(Cl)cccc1Cl` [Example 100], the results for the pest or weed control at 20 ppm in experiment [1] and in experiment [2] were 90% and 100%, respectively. The pest or weed control at 500 g/ha in experiment [3] and in experiment [4] was 100% in each case.

On to `Cc1ccccc1S(=O)(=O)NC(=O)c1nc(-c2ccccc2Cl)n(C)c1Cl` [Example 205], for which the pest or weed control at 20 ppm in experiment [1] and in experiment [2] was 100% in each case. The pest or weed control at 500 g/ha in experiment [3] came to 100%.

Turning to `Cc1cc(C)c(S(=O)(=O)NC(=O)c2cn(C)c(-c3c(F)cccc3F)n2)c(C)c1` [Example 436], the pest or weed control at 20 ppm in experiment [1] is 90%; in experiment [2], 100%. Besides, the figures for the pest or weed control at 500 g/ha in experiment [3] and in experiment [4] were 100% and 90%, respectively.

On to `Cn1cc(C(=O)NS(=O)(=O)c2cc(Cl)ccc2Cl)nc1-c1c(F)cccc1F` [Example 171], for which the pest or weed control at 20 ppm in experiment [1] and in experiment [2] was 100% in each case. The pest or weed control at 500 g/ha in experiment [3] stood at 83%; in experiment [4], 90%.

For `Cc1ccccc1S(=O)(=O)NC(=O)c1cn(C)c(-c2cc(Cl)ccc2Cl)n1` [Example 517], the pest or weed control at 20 ppm in experiment [1] and in experiment [2] was 100% throughout. For the same compound, the pest or weed control at 500 g/ha in experiment [3] was 100%; in experiment [4], 90%.

As for `Cc1cc(C(=O)NS(=O)(=O)c2cc(Cl)ccc2Br)nn1-c1c(F)cccc1F` [Example 294], the pest or weed control at 20 ppm in experiment [1] and in experiment [2] was 100% throughout. In addition, the pest or weed control at 500 g/ha in experiment [3] and in experiment [4] was 100% each time.

`Cn1cc(C(=O)NS(=O)(=O)c2ccccc2Cl)nc1-c1c(F)cc(F)cc1F` [Example 2]: the pest or weed control at 20 ppm in experiment [1] came out at 90%. Moreover, the pest or weed control at 500 g/ha was 100% in experiment [3] and 90% in experiment [4].

With `Cc1cccc(C)c1S(=O)(=O)NC(=O)c1cn(C)c(-c2ncccc2Cl)n1` [Example 587], the figures for the pest or weed control at 20 ppm in experiment [1] and in experiment [2] were 90% and 100%, respectively. Besides, the pest or weed control at 500 g/ha in experiment [3] was 100%; in experiment [4], 90%.

In the case of `Cc1cccc(Cl)c1S(=O)(=O)NC(=O)c1cn(C)c(-c2cccc(Cl)c2Cl)n1` [Example 556], the pest or weed control at 20 ppm in experiment [1] turned out to be 90%; in experiment [2] it was 100%. The pest or weed control at 500 g/ha was found to be 100% in experiment [3] and 90% in experiment [4].

Consider `CCc1ccccc1S(=O)(=O)NC(=O)c1cn(C)c(-c2ncccc2Cl)n1` [Example 581], for which the pest or weed control at 20 ppm in experiment [1] is 100%. The pest or weed control at 4 ppm in experiment [2] turned out to be 100%. The pest or weed control at 500 g/ha in experiment [3] and in experiment [4] was 100% in each case.

Take `Cc1ccccc1S(=O)(=O)NC(=O)c1nc(-c2c(F)cccc2F)n(C)c1Cl` [Example 552]: the pest or weed control at 20 ppm in experiment [1] was determined as 90%. Moreover, the pest or weed control at 500 g/ha in experiment [3] was 83%; in experiment [4] it was 90%.

Turning to `Cc1ccc(F)cc1S(=O)(=O)NC(=O)c1cn(C)c(-c2ccccc2Cl)n1` [Example 425], the results for the pest or weed control at 20 ppm in experiment [1] and in experiment [2] were 90% and 100%, respectively. For the same compound, the pest or weed control at 500 g/ha in experiment [3] and in experiment [4] was 100% each time.

As to `Cc1cc(C(=O)NS(=O)(=O)c2c(Cl)cccc2Cl)nn1-c1ccccc1Cl` [Example 269], the pest or weed control at 20 ppm in experiment [1] and in experiment [2] was 100% in each case. Further, the pest or weed control at 500 g/ha in experiment [3] was 83%; in experiment [4], 100%.

With `Cc1cccc(C(F)(F)F)c1S(=O)(=O)NC(=O)c1cn(C)c(-c2ncccc2Cl)n1` [Example 586], in experiment [1], the pest or weed control at 20 ppm is 90%. For the same compound, in experiment [2], the pest or weed control at 4 ppm is 100%. The pest or weed control at 500 g/ha in experiment [3] and in experiment [4] was 100% each time.

Take `Cc1cccc(S(=O)(=O)NC(=O)c2cn(C)c(-c3c(F)cccc3F)n2)c1` [Example 176]: the pest or weed control at 20 ppm worked out at 100% in experiment [1] and 90% in experiment [2]. Moreover, the pest or weed control at 500 g/ha in experiment [3] was determined as 83%; in experiment [4] it was 90%.

As to `Cn1cc(C(=O)NS(=O)(=O)c2ccc(Cl)cc2I)nc1-c1c(F)cccc1F` [Example 439], the results for the pest or weed control at 20 ppm in experiment [1] and in experiment [2] were 90% and 100%, respectively. In addition, the pest or weed control at 500 g/ha is 100% in experiment [3] and 90% in experiment [4].

`Cc1ccc(S(=O)(=O)NC(=O)c2cn(C)c(-c3ccccc3Cl)n2)cc1` [Example 164]: in experiment [1], the pest or weed control at 20 ppm amounted to 90%. Moreover, the pest or weed control at 500 g/ha in experiment [3] and in experiment [4] was 100% each time.

`Cc1cccc(OC(F)(F)F)c1S(=O)(=O)NC(=O)c1cn(C)c(-c2c(F)cccc2F)n1` [Example 405]: the figures for the pest or weed control at 20 ppm in experiment [1] and in experiment [2] were 90% and 100%, respectively. Besides, the pest or weed control at 500 g/ha in experiment [3] worked out at 100%.

For `Cc1cc(F)c(F)cc1S(=O)(=O)NC(=O)c1cn(C)c(-c2c(F)cccc2F)n1` [Example 289], the pest or weed control at 20 ppm was determined as 90% in experiment [1] and 100% in experiment [2]. The figures for the pest or weed control at 500 g/ha in experiment [3] and in experiment [4] were 100% and 90%, respectively.

On to `Cn1cc(C(=O)NS(=O)(=O)c2c(Cl)cccc2Cl)nc1-c1ccccc1Cl` [Example 227], for which the pest or weed control at 20 ppm in experiment [1] turned out to be 100%. For the same compound, the figures for the pest or weed control at 500 g/ha in experiment [3] and in experiment [4] were 83% and 100%, respectively.

In the case of `COc1ccc(Br)c(S(=O)(=O)NC(=O)c2cn(C)c(-c3ncccc3Cl)n2)c1` [Example 597], the pest or weed control at 20 ppm in experiment [1] came out at 90%; in experiment [2] it was 100%. The pest or weed control at 500 g/ha in experiment [3] and in experiment [4] was 100% each time.

With `Cc1cc(Br)ccc1S(=O)(=O)NC(=O)c1cn(C)c(-c2c(F)cccc2F)n1` [Example 446], the pest or weed control at 20 ppm amounted to 90% in experiment [1] and 100% in experiment [2]. Also, the pest or weed control at 500 g/ha is 100% in experiment [3] and 90% in experiment [4].

As to `Cn1cc(C(=O)NS(=O)(=O)c2cc(Cl)cc(Cl)c2)nc1-c1c(F)cccc1F` [Example 188], the pest or weed control at 20 ppm in experiment [1] and in experiment [2] was 100% in each case. The pest or weed control at 500 g/ha stood at 100% in experiment [3] and 90% in experiment [4].

As to `Cn1c(-c2ccccc2Cl)nc(C(=O)NS(=O)(=O)c2ccccc2Cl)c1Cl` [Example 221], the pest or weed control at 20 ppm in experiment [1] and in experiment [2] was 100% throughout. For the same compound, in experiment [3], the pest or weed control at 500 g/ha amounted to 100%.

As for `Cc1ccccc1S(=O)(=O)NC(=O)c1nc(-c2c(F)cccc2F)c(C)n1C` [Example 311], the pest or weed control at 20 ppm in experiment [1] and in experiment [2] was 100% in each case. The pest or weed control at 500 g/ha in experiment [3] came to 83%.

With `Cn1cc(C(=O)NS(=O)(=O)c2cccc(Cl)c2)nc1-c1c(Cl)cccc1Cl` [Example 42], the pest or weed control at 20 ppm in experiment [1] came to 100%. The pest or weed control at 500 g/ha in experiment [3] and in experiment [4] was 100% throughout.

`Cc1ccccc1S(=O)(=O)NC(=O)c1cn(C)c(-c2cccc3ccccc23)n1` [Example 216]: the figures for the pest or weed control at 20 ppm in experiment [1] and in experiment [2] were 90% and 100%, respectively. Besides, the pest or weed control at 500 g/ha in experiment [3] was 100%.

Take `COc1ccc(Cl)c(S(=O)(=O)NC(=O)c2nc(-c3c(F)cccc3F)n(C)c2C)c1` [Example 334]: in experiment [1], the pest or weed control at 20 ppm is 90%. The pest or weed control at 500 g/ha in experiment [3] stood at 100%.

Turning to `COc1ccc(Cl)c(S(=O)(=O)NC(=O)c2nc(-c3ccccc3Cl)n(C)c2Cl)c1` [Example 577], in experiment [1], the pest or weed control at 20 ppm is 100%. Also, the pest or weed control at 500 g/ha in experiment [3] turned out to be 100%.
